From BindingDB's records for doi:10.1021/jm970389+ (Abbott Laboratories, 1998)
pKi: −log10 of the molar value.

experiment: Binding potency against Platelet activating factor (PAF) receptor using [3H]C18-PAF as radioligand on rabbit platelet membranes

Point of comparison: `COC(=O)c1cccc2c1c(C(=O)c1ccc(Cn3c(C)nc4cnccc43)cc1)cn2S(=O)(=O)C(C)C` [3-[4-(2-Methyl-imidazo[4,5-c]pyridin-1-ylmethyl)-benzoyl]-1-(propane-2-sulfonyl)-1H-indole-4-carboxylic acid methyl ester], pKi 9.72. Against it:
- CCOCCn1cc(C(=O)c2ccc(Cn3c(C)nc4cnccc43)cc2)c2c(C(=O)OC)cccc21 [1-(2-Ethoxy-ethyl)-3-[4-(2-methyl-imidazo[4,5-c]pyridin-1-ylmethyl)-benzoyl]-1H-indole-4-carboxylic acid methyl ester] — 0.76 log units lower, 8.96
- COC(=O)c1cccc2c1c(C(=O)c1ccc(Cn3c(C)nc4cnccc43)cc1)cn2CC(=O)C(C)(C)C [1-(3,3-Dimethyl-2-oxo-butyl)-3-[4-(2-methyl-imidazo[4,5-c]pyridin-1-ylmethyl)-benzoyl]-1H-indole-4-carboxylic acid methyl ester] — 0.55 log units lower, 9.17
- COC(=O)c1cccc2c1c(C(=O)c1ccc(Cn3c(C)nc4cnccc43)cc1)cn2C(N)=O [1-Carbamoyl-3-[4-(2-methyl-imidazo[4,5-c]pyridin-1-ylmethyl)-benzoyl]-1H-indole-4-carboxylic acid methyl ester] — 0.90 log units lower, 8.82
- COC(=O)c1cccc2c1c(C(=O)c1ccc(Cn3c(C)nc4cnccc43)c(F)c1)cn2C(=O)N(C)C [1-Dimethylcarbamoyl-3-[3-fluoro-4-(2-methyl-imidazo[4,5-c]pyridin-1-ylmethyl)-benzoyl]-1H-indole-4-carboxylic acid methyl ester] — 1.42 log units lower, 8.30
- COC(=O)c1cccc2c1c(C(=O)c1ccc(Cn3c(C)nc4c(C)nc(C)cc43)cc1)cn2C(=O)N(C)C [1-Dimethylcarbamoyl-3-[4-(2,4,6-trimethyl-imidazo[4,5-c]pyridin-1-ylmethyl)-benzoyl]-1H-indole-4-carboxylic acid methyl ester] — 2.80 log units lower, 6.92
- COC(=O)c1cccc2c1c(C(=O)c1ccc(Cn3c(C)nc4c(=O)[nH]ccc43)cc1)cn2C(=O)N(C)C [1-Dimethylcarbamoyl-3-[4-(2-methyl-4-oxo-4,5-dihydro-imidazo[4,5-c]pyridin-1-ylmethyl)-benzoyl]-1H-indole-4-carboxylic acid methyl ester] — 1.32 log units lower, 8.40
- COC(=O)c1cccc2c1c(C(=O)c1ccc(Cn3c(C)nc4c[n+]([O-])ccc43)cc1)cn2C(=O)N(C)C [1-Dimethylcarbamoyl-3-[4-(2-methyl-5-oxy-imidazo[4,5-c]pyridin-1-ylmethyl)-benzoyl]-1H-indole-4-carboxylic acid methyl ester] — 2.08 log units lower, 7.64
- COC(=O)c1cccc2c1c(C(=O)c1ccc(Cn3c(C)nc4ccccc43)cc1)cn2C(=O)N(C)C [1-Dimethylcarbamoyl-3-[4-(2-methyl-benzoimidazol-1-ylmethyl)-benzoyl]-1H-indole-4-carboxylic acid methyl ester] — 0.68 log units lower, 9.04
- COC(=O)c1cccc2c1c(C(=O)c1ccc(Cn3c(C)nc4ncccc43)cc1)cn2C(=O)N(C)C [1-Dimethylcarbamoyl-3-[4-(2-methyl-imidazo[4,5-b]pyridin-1-ylmethyl)-benzoyl]-1H-indole-4-carboxylic acid methyl ester] — 1.18 log units lower, 8.54
- COC(=O)c1cccc2c1c(C(=O)c1ccc(Cn3c(C)nc4cccnc43)cc1)cn2C(=O)N(C)C [1-Dimethylcarbamoyl-3-[4-(2-methyl-imidazo[4,5-b]pyridin-3-ylmethyl)-benzoyl]-1H-indole-4-carboxylic acid methyl ester] — 1.72 log units lower, 8.00
- COC(=O)c1cccc2c1c(S(=O)(=O)c1ccc(Cn3c(C)nc4cnccc43)cc1)cn2C(=O)N(C)C [1-Dimethylcarbamoyl-3-[4-(2-methyl-imidazo[4,5-c]pyridin-1-ylmethyl)-benzenesulfonyl]-1H-indole-4-carboxylic acid methyl ester] — 1.83 log units lower, 7.89
- CCOC(=O)c1cccc2c1c(C(=O)c1ccc(Cn3c(C)nc4cnccc43)cc1)cn2C(=O)N(C)C [1-Dimethylcarbamoyl-3-[4-(2-methyl-imidazo[4,5-c]pyridin-1-ylmethyl)-benzoyl]-1H-indole-4-carboxylic acid ethyl ester] — 1.44 log units lower, 8.28
- Cc1nc2cnccc2n1Cc1ccc(C(=O)c2cn(C(=O)N(C)C)c3cccc(C(=O)OC(C)C)c23)cc1 [1-Dimethylcarbamoyl-3-[4-(2-methyl-imidazo[4,5-c]pyridin-1-ylmethyl)-benzoyl]-1H-indole-4-carboxylic acid isopropyl ester] — 1.39 log units lower, 8.33
- Cc1nc2cnccc2n1Cc1ccc(C(=O)c2cn(C(=O)N(C)C)c3cccc(C(=O)O)c23)cc1 [1-Dimethylcarbamoyl-3-[4-(2-methyl-imidazo[4,5-c]pyridin-1-ylmethyl)-benzoyl]-1H-indole-4-carboxylic acid] — 1.87 log units lower, 7.85
- COC(=O)c1ccc2c(c1)c(C(=O)c1ccc(Cn3c(C)nc4cnccc43)cc1)cn2C(=O)N(C)C [1-Dimethylcarbamoyl-3-[4-(2-methyl-imidazo[4,5-c]pyridin-1-ylmethyl)-benzoyl]-1H-indole-5-carboxylic acid methyl ester] — 2.76 log units lower, 6.96
- COC(=O)c1cc(C#Cc2ccccc2)cc2c1c(C(=O)c1ccc(Cn3c(C)nc4cnccc43)cc1)cn2C(=O)N(C)C [1-Dimethylcarbamoyl-3-[4-(2-methyl-imidazo[4,5-c]pyridin-1-ylmethyl)-benzoyl]-6-phenylethynyl-1H-indole-4-carboxylic acid methyl ester] — 0.70 log units lower, 9.02
- COC(=O)c1cccc2c1c(C(=O)C1CCC(Cn3c(C)nc4cnccc43)CC1)cn2C(=O)N(C)C (stereo not drawn) [1-Dimethylcarbamoyl-3-[4-(2-methyl-imidazo[4,5-c]pyridin-1-ylmethyl)-cyclohexanecarbonyl]-1H-indole-4-carboxylic acid methyl ester] — 1.10 log units lower, 8.62
- COC(=O)c1cccc2c1c(C(=O)c1ccc(Cn3ccc4nc(C)nc-4c3)cc1)cn2C(=O)N(C)C [1-Dimethylcarbamoyl-3-[4-(2-methyl-imidazo[4,5-c]pyridin-5-ylmethyl)-benzoyl]-1H-indole-4-carboxylic acid methyl ester] — lower, < 6.00
- COC(=O)c1cccc2c1c(C(=O)CCCCn1c(C)nc3cnccc31)cn2C(=O)N(C)C [1-Dimethylcarbamoyl-3-[5-(2-methyl-imidazo[4,5-c]pyridin-1-yl)-pentanoyl]-1H-indole-4-carboxylic acid methyl ester] — 1.76 log units lower, 7.96
- COC(=O)c1cccc2c1c(C(=O)c1ccc(Cn3c(C)nc4cnccc43)s1)cn2C(=O)N(C)C [1-Dimethylcarbamoyl-3-[5-(2-methyl-imidazo[4,5-c]pyridin-1-ylmethyl)-thiophene-2-carbonyl]-1H-indole-4-carboxylic acid methyl ester] — 1.63 log units lower, 8.09
- COC(=O)c1cccc2c1c(C(=O)CCCCCn1c(C)nc3cnccc31)cn2C(=O)N(C)C [1-Dimethylcarbamoyl-3-[6-(2-methyl-imidazo[4,5-c]pyridin-1-yl)-hexanoyl]-1H-indole-4-carboxylic acid methyl ester] — 1.51 log units lower, 8.21
- COC(=O)c1cccc2c1c(C(=O)CCCCCCn1c(C)nc3cnccc31)cn2C(=O)N(C)C [1-Dimethylcarbamoyl-3-[7-(2-methyl-imidazo[4,5-c]pyridin-1-yl)-heptanoyl]-1H-indole-4-carboxylic acid methyl ester] — 1.69 log units lower, 8.03
- COC(=O)c1cccc2c1c(C(=O)Cc1ccc(-n3c(C)nc4cnccc43)cc1)cn2C(=O)N(C)C [1-Dimethylcarbamoyl-3-{2-[4-(2-methyl-imidazo[4,5-c]pyridin-1-yl)-phenyl]-acetyl}-1H-indole-4-carboxylic acid methyl ester] — 0.52 log units lower, 9.20
- COC(=O)c1cc(-c2ccc(F)cc2)cc2c1c(C(=O)c1ccc(Cn3c(C)nc4cnccc43)cc1)cn2C(=O)N(C)C [1-Dimethylcarbamoyl-6-(4-fluoro-phenyl)-3-[4-(2-methyl-imidazo[4,5-c]pyridin-1-ylmethyl)-benzoyl]-1H-indole-4-carboxylic acid methyl ester] — within 0.2 log units, 9.82
- COC(=O)c1cccc2c1c(C(=O)c1ccc(Cn3c(C)nc4cnccc43)cc1)cn2CC(=O)N(C)C [1-Dimethylcarbamoylmethyl-3-[4-(2-methyl-imidazo[4,5-c]pyridin-1-ylmethyl)-benzoyl]-1H-indole-4-carboxylic acid methyl ester] — 1.36 log units lower, 8.36
- COC(=O)c1cccc2c1c(C(=O)c1ccc(Cn3c(C)nc4cnccc43)cc1)cn2S(=O)(=O)N(C)C [1-Dimethylsulfamoyl-3-[4-(2-methyl-imidazo[4,5-c]pyridin-1-ylmethyl)-benzoyl]-1H-indole-4-carboxylic acid methyl ester] — 1.35 log units lower, 8.37
- COC(=O)c1cccc2c1c(C(=O)c1ccc(Cn3c(C)nc4cnccc43)cc1)cn2C(C)C [1-Isopropyl-3-[4-(2-methyl-imidazo[4,5-c]pyridin-1-ylmethyl)-benzoyl]-1H-indole-4-carboxylic acid methyl ester] — 0.83 log units lower, 8.89
- CNC(=O)n1cc(C(=O)c2ccc(Cn3c(C)nc4cnccc43)cc2)c2c(C(=O)OC)cccc21 [1-Methylcarbamoyl-3-[4-(2-methyl-imidazo[4,5-c]pyridin-1-ylmethyl)-benzoyl]-1H-indole-4-carboxylic acid methyl ester] — 0.90 log units lower, 8.82
- CCOCCn1cc(C(=O)CN2CCC(n3c(C)nc4cnccc43)CC2)c2c(Cl)cccc21 [1-[4-Chloro-1-(2-ethoxy-ethyl)-1H-indol-3-yl]-2-[4-(2-methyl-imidazo[4,5-c]pyridin-1-yl)-piperidin-1-yl]-ethanone] — 1.90 log units lower, 7.82
- COC(=O)c1cccc2c1c(C(=O)c1ccc(Cn3c(C)nc4ccccc43)cc1)cn2C(=O)N1CCCC1 [3-[4-(2-Methyl-benzoimidazol-1-ylmethyl)-benzoyl]-1-(pyrrolidine-1-carbonyl)-1H-indole-4-carboxylic acid methyl ester] — 0.95 log units lower, 8.77
- Cc1nc2cnccc2n1Cc1ccc(S(=O)(=O)c2cn(C(=O)N(C)C)c3ccccc23)cc1 [3-[4-(2-Methyl-imidazo[4,5-c]pyridin-1-ylmethyl)-benzenesulfonyl]-indole-1-carboxylic acid dimethylamide] — 1.80 log units lower, 7.92
- COC(=O)c1cccc2c1c(C(=O)c1ccc(Cn3c(C)nc4cnccc43)cc1)cn2C(=O)N1CCCC1 [3-[4-(2-Methyl-imidazo[4,5-c]pyridin-1-ylmethyl)-benzoyl]-1-(pyrrolidine-1-carbonyl)-1H-indole-4-carboxylic acid methyl ester] — 1.76 log units lower, 7.96
